Measurements published in US20250268873A1, “COMBINATION OF DUAL ATM AND DNA-PK INHIBITORS AND IMMUNOTHERAPEUTIC AGENTS FOR USE IN CANCER THERAPY” (XRAD THERAPEUTICS, INC., priority 2021, published 2025).

How the values were obtained:
[1] = tested on: FADU tumors; experiment: In vivo tumor growth delay study, FADU subcutaneous human xenograft mouse model
Protocol: Female NCr nu/nu mice (Crl:NU(NCr)-Foxn1nu, Strain 490) were obtained from Charles River at 5-6 weeks of age.
(§1) FADU or MDA-MB-231 cells were harvested during log phase growth for in vivo implantation. The resuspended cells were washed three times in phosphate buffered saline (PBS) before preparing the working dilution in PBS. FADU cells were diluted to 1×10^7 cells/mL and MDA-MB-231 cells were diluted to 5×10^7 cells/mL. Each mouse was injected subcutaneously in the right flank with 100 μL of the cellular suspension. Tumor growth was monitored until the tumors reached a target volume of at least 100 mm^3, at which point mice were randomly stratified into four treatment groups.
Following implantation of the tumor cell lines, mice were monitored once weekly for tumor development. Upon detection, tumors were measured in two dimensions using digital calipers. Tumors were treated after reaching at least 100 mm^3 and were measured two to three times weekly following enrollment in one of the treatment groups. The study endpoint was defined as tumor quintupling from the volume at time of treatment.
The vehicle used in this study was 0.5% (Hydroxypropyl)methyl cellulose (HPMC) and 0.2% Tween80 dissolved in deionized water. The pH of the vehicle was adjusted to 7.0-8.0 and the vehicle was stored at 4° C. On each day of in vivo treatment an appropriate mass of test compound was added to the vehicle at room temperature. The mixture was vortexed as necessary to generate a final concentration of 1.6 mg/mL.
In vivo tumor growth delay study was performed as follows. Following implantation of the tumor cell lines, mice were monitored once weekly for tumor development. Upon development of a tumor measuring at least 100 mm^3, tumor-bearing mice were stratified to one of 4 groups, utilizing 5 mice per group. Tumor volumes were between 100 and 500 mm^3. Vehicle or compound 569 (10 mg/kg) were administered by oral gavage once daily for three consecutive days (qd×3), alone or in combination with focal radiation. The delivered volume of vehicle or compound 569 was adjusted based on body weight of the individual animals. […]
Prism (GraphPad) was used for graphical presentations. […] In order to adjust for the differing tumor sizes at the start of treatment, the relative tumor volume was calculated by dividing the tumor volume at each time point by the volume at baseline. […] When an animal exited the study due to tumor quintupling, the final tumor volume recorded for the animal was included with the data used to calculate the median volume at subsequent time points. […] Differences in quintupling-free survival between the four treatment groups were evaluated with a log-rank test. […]

[2] = target: ATM (Homo sapiens (Human), UniProt Q13315); experiment: Pharmacodynamic assay, pKAP1/KAP1 in FADU tumors; type: in vivo; conditions: for pKAP1/KAP1: FADU tumors
ATM, sequence (Q13315 whole entry): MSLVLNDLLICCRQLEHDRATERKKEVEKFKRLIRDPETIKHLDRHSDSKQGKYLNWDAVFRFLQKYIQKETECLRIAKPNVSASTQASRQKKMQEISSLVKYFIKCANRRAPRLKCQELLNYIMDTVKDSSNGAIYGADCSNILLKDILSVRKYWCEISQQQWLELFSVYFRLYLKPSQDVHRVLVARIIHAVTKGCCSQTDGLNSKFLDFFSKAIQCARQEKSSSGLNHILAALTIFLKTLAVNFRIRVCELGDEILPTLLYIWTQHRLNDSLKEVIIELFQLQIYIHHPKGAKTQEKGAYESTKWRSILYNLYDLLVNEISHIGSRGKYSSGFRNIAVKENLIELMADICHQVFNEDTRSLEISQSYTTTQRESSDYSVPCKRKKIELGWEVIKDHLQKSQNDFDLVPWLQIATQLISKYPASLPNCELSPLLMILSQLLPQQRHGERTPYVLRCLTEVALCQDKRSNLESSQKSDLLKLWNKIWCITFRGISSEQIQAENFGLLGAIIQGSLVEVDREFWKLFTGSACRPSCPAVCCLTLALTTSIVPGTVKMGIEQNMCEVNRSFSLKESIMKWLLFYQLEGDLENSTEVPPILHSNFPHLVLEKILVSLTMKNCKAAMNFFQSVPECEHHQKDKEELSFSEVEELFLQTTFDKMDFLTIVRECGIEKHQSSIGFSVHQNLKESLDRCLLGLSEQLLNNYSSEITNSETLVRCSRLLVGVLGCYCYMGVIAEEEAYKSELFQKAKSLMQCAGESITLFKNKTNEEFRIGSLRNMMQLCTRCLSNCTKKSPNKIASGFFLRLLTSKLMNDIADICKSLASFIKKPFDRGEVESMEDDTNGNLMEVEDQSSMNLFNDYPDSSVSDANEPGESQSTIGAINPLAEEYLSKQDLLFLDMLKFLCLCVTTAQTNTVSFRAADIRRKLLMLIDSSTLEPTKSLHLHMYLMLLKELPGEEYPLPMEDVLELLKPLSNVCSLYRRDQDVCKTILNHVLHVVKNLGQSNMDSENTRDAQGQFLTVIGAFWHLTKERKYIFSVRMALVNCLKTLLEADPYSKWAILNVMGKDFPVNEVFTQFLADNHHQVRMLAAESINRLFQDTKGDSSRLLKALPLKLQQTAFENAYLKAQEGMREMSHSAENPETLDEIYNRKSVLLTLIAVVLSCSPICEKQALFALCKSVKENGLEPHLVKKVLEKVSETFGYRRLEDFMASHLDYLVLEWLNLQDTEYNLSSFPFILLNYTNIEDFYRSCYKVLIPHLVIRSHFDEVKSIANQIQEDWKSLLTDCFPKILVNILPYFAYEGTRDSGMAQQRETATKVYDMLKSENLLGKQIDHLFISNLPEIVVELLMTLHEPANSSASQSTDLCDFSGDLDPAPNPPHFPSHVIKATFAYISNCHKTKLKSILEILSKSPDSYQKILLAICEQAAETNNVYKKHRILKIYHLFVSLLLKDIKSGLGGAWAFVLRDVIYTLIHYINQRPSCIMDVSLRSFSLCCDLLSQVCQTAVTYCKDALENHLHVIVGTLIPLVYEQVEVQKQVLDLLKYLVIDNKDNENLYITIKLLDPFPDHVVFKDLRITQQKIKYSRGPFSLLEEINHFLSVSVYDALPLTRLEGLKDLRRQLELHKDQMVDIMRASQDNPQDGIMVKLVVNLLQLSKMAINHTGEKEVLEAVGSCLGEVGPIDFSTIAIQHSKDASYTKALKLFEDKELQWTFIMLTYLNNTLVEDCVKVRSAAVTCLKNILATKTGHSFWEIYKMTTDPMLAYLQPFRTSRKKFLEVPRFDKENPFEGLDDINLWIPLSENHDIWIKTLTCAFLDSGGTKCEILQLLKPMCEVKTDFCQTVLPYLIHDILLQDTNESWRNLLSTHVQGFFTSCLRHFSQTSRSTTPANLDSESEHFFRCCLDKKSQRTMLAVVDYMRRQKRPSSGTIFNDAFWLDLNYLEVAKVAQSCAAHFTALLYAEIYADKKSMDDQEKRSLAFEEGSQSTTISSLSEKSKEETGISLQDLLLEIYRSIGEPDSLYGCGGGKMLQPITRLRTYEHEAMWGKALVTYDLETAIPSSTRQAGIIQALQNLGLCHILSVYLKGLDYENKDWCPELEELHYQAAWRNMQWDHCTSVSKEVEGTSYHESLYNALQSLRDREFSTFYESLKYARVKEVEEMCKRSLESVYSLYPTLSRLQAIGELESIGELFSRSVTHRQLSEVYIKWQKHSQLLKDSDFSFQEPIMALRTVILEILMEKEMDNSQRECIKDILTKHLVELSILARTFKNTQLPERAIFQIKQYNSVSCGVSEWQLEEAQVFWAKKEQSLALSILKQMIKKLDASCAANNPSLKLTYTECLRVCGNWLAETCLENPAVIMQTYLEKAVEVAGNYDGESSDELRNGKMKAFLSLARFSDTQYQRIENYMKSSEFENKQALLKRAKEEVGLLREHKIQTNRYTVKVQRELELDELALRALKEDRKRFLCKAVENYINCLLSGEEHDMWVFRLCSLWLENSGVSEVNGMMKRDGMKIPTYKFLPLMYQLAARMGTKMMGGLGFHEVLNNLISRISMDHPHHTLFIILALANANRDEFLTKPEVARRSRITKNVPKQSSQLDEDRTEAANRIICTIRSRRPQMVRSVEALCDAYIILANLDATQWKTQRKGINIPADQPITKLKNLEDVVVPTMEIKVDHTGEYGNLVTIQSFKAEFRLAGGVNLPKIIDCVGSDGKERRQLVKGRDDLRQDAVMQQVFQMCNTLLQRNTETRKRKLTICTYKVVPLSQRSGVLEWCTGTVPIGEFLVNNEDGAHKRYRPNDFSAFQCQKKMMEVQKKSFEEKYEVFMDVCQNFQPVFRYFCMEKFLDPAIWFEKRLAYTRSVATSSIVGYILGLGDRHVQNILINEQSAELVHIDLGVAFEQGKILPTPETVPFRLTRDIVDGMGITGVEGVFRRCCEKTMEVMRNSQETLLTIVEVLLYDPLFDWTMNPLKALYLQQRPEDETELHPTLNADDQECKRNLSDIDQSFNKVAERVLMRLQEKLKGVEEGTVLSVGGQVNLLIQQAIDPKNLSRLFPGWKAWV
Protocol: as §1
Tumor studies were performed as follows. Mice bearing FADU or MDA-231 tumors were pre-dosed with vehicle alone or compound 569 alone at 3, 6, and 10 mg/kg. Tumors were then irradiated with 10 Gy 45 min after vehicle or compound 569 administration or left unirradiated (vehicle and compound 569 at 10 mg/kg). Tumors were harvested 1 h post radiation.
Tissue homogenates for pharmacodynamic analyses were collected and processed as follows. Tumor tissues from FADU or MDA-MB-231 tumors were flash frozen in liquid nitrogen and pulverized on dry ice using a tissue pulverizer. A portion of the tumor powder was transferred into a microtube, followed by addition of 500 μL of RIPA buffer [[…], pH 8.0, 150 mM NaCl, 0.1% SDS, 0.5% sodium deoxycholate, 1% IGEPAL® CA-630 (Sigma, I8896)]. To 10 ml of RIPA buffer, 2 tablets each of Protease inhibitor and Phosphatase inhibitor (Roche, #04693159001 & #04906837001), 200 μL of 0.1 M PMSF and 160 μL of Aprotinin, (Sigma, A6279) were added. The suspension was homogenized on ice with a pellet pestle motor (KONTES) and incubated on ice for 30 minutes. Cell lysates were centrifuged at 13,200 rpm for 15 min at 4° C. and supernatants were transferred to a new tube and analyzed for protein concentration with a BCA kit (Pierce, 23227), followed by immunoblotting.

[3] = target: mTOR (Homo sapiens, UniProt P42345); experiment: mTOR Biochemical Assay (LanthaScreen TR-FRET); conditions: ATP 3 μM
Protocol: mTOR Kinase reactions were performed in a 10 μL volume in low-volume 384-well plates. Typically, PerkinElmer model 6008260 plates were used. The composition of the 1× kinase reaction buffer was: 50 mM HEPES pH 7.5, 0.01% Tween 20, 1 mM EGTA, 10 mM MnCl2, and 2 mM DTT. The solution of mTOR enzyme (ThermoFisher, #PR8683B; the final mTOR concentration: 0.5 μg/mL) was added, and the compounds were serially diluted to the final maximal concentration of 100 nM (3 fold series dilution, a total of 10 doses). GFP-4E-BP1 (the final concentration: 0.4 μM) and the ATP solution (the final ATP concentration: 3 μM) were added to the 384-well plate. The plate was incubated at 25° C. for 1 hour, and 10 μL of the EDTA solution (20 mM) and Tb-labeled anti-p4E-BP1 antibody (4 nM) in TR-FRET dilution buffer were added to each well. The plate was sealed, incubated 30 min at 25° C., and read on a plate reader configured for LanthaScreen™ TRFRET.

SMILES: CC(C)NCCOc1ncc(-c2cc3c4c(cnc3cc2F)N(C)C(=O)C42CCC2)cc1NS(C)(=O)=O [Compound 569, N-(5-(7′-Fluoro-3′-methyl-2′-oxo-2′,3′-dihydrospiro[cyclobutane-1,1′-pyrrolo[2,3-c]quinolin]-8′-yl)-2-(2-(isopropylamino)ethoxy)pyridin-3-yl)methanesulfonamide]
- median time to endpoint (tumor quintupling) ([1]; Group 2: Compound 569 10 mg/kg po qd×3 alone): 14 days
- tumor growth curves and quintupling-free survival ([1]; Group 2: Compound 569 10 mg/kg qd×3 alone vs vehicle (Group 1)): nearly identical to those for Group 1
- median time to endpoint (tumor quintupling) ([1]; Group 4: compound 569 10 mg/kg 45 min prior to 3 Gy focal radiation, qd×3): 42 days
- overall survival (quintupling-free) ([1]; Group 4: compound 569 + 3 Gy qd×3, P<0.01, logrank): significantly improved compared to Group 1, Group 2, and Group 3
- inhibition at 10 mg/kg ([2]; 10 mg/kg, 10 Gy, FADU and MDA231 tumors (FIGS. 4 and 5), read-out: inhibition of tumor levels of radiation-induced phosphorylation of KAP1): > 80%
- pKAP1/KAP1 ([2]; 10 Gy, 3 mg/kg oral): 0.0903
- pKAP1/KAP1 ([2]; 10 Gy, 6 mg/kg oral): 0.0982
- pKAP1/KAP1 ([2]; 10 Gy, 10 mg/kg oral): 0.156
- pKAP1/KAP1 ([2]; no radiation, 10 mg/kg oral): 0.00595
- IC50 [3]: > 0.1 µM
